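Cells were grown in 96-well plates and exposed to each compound for 48 hours at five concentrations; endpoints were interpolated linearly between bracketing concentrations, or set to the highest concentration if not reached. TGI denotes the concentration required for complete inhibition of growth.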
What was measured:
Experiment in all cases: NCI anticancer screen, dose series, 48 h
OVCAR-3 ovarian = system: OVCAR-3 ovarian
COLO 205 colon = system: COLO 205 colon
HT29 colon = system: HT29 colon
ACHN renal = system: ACHN renal
SK-OV-3 ovarian = system: SK-OV-3 ovarian
SNB-19 CNS = system: SNB-19 CNS
A549 NSCLC = system: A549 NSCLC
HL-60(TB) leukemia = system: HL-60(TB) leukemia
MOLT-4 leukemia = system: MOLT-4 leukemia
EKVX NSCLC = system: EKVX NSCLC
HCC-2998 colon = system: HCC-2998 colon
HCT-15 colon = system: HCT-15 colon
786-0 renal = system: 786-0 renal
LOX IMVI melanoma = system: LOX IMVI melanoma
KM20L2 colon = system: KM20L2 colon
DMS 114 small cell lung = system: DMS 114 small cell lung
UACC-257 melanoma = system: UACC-257 melanoma
A498 renal = system: A498 renal
SN12C renal = system: SN12C renal
K-562 leukemia = system: K-562 leukemia
HCT-116 colon = system: HCT-116 colon
NCI-H522 lung = system: NCI-H522 lung
OVCAR-5 ovarian = system: OVCAR-5 ovarian
MALME-3M melanoma = system: MALME-3M melanoma
SF-539 CNS = system: SF-539 CNS
OVCAR-8 ovarian = system: OVCAR-8 ovarian
SF-295 CNS = system: SF-295 CNS
U251 CNS = system: U251 CNS
M19-MEL melanoma = system: M19-MEL melanoma
SNB-75 CNS = system: SNB-75 CNS
NCI-H226 lung = system: NCI-H226 lung
SK-MEL-5 melanoma = system: SK-MEL-5 melanoma
UO-31 renal = system: UO-31 renal
UACC-62 melanoma = system: UACC-62 melanoma
SK-MEL-28 melanoma = system: SK-MEL-28 melanoma
HOP-92 NSCLC = system: HOP-92 NSCLC
M14 melanoma = system: M14 melanoma
SR leukemia = system: SR leukemia
NCI-H23 lung = system: NCI-H23 lung
DMS 273 small cell lung = system: DMS 273 small cell lung
IGROV1 ovarian = system: IGROV1 ovarian
DLD-1 colon = system: DLD-1 colon
SK-MEL-2 melanoma = system: SK-MEL-2 melanoma
HOP-62 NSCLC = system: HOP-62 NSCLC
RXF 393 renal = system: RXF 393 renal
SNB-78 CNS = system: SNB-78 CNS
HOP-18 NSCLC = system: HOP-18 NSCLC
SW-620 colon = system: SW-620 colon
CCRF-CEM leukemia = system: CCRF-CEM leukemia
CAKI-1 renal = system: CAKI-1 renal
SF-268 CNS = system: SF-268 CNS
LXFL 529 NSCLC = system: LXFL 529 NSCLC
TK-10 renal = system: TK-10 renal
RPMI-8226 leukemia = system: RPMI-8226 leukemia
XF 498 CNS = system: XF 498 CNS
KM12 colon = system: KM12 colon
NCI-H460 lung = system: NCI-H460 lung
OVCAR-4 ovarian = system: OVCAR-4 ovarian

With `CC1=C(C(=O)Nc2ccccc2)C(c2cccc3ccccc23)C(C(=O)Nc2ccccc2)=C(C)N1` the TGI (OVCAR-3 ovarian) was 26.4 µM, the TGI (COLO 205 colon) was 26.6 µM and the TGI (HT29 colon) was 36.2 µM. It also gave a TGI (ACHN renal) of 83.8 µM, a TGI (SK-OV-3 ovarian) of 38.5 µM and a TGI (SNB-19 CNS) of 72.5 µM. It also gave a TGI (A549 NSCLC) of 82 µM, a TGI (HL-60(TB) leukemia) of 40 µM and a TGI (MOLT-4 leukemia) of 43.8 µM. For the same compound, the TGI (EKVX NSCLC) was 37.6 µM, the TGI (HCC-2998 colon) was 38.6 µM and the TGI (HCT-15 colon) was 30.5 µM. For the same compound, the TGI (786-0 renal) was 52.5 µM, the TGI (LOX IMVI melanoma) was 30.4 µM and the TGI (KM20L2 colon) was 36.2 µM. It also gave a TGI (DMS 114 small cell lung) of 55.7 µM, a TGI (UACC-257 melanoma) of 39.2 µM and a TGI (A498 renal) of 48.5 µM. For the same compound, the TGI (SN12C renal) was 33.3 µM, the TGI (K-562 leukemia) was 72.5 µM and the TGI (HCT-116 colon) was 28.7 µM. For the same compound, the TGI (NCI-H522 lung) was 35.6 µM, the TGI (OVCAR-5 ovarian) was 44.6 µM and the TGI (MALME-3M melanoma) was 37.4 µM. The TGI (SF-539 CNS) was 37.9 µM, the TGI (OVCAR-8 ovarian) was 35.8 µM and the TGI (SF-295 CNS) was 46.6 µM. The TGI (U251 CNS) was 31.3 µM, the TGI (M19-MEL melanoma) was 34.5 µM and the TGI (SNB-75 CNS) was 47.7 µM. The TGI (NCI-H226 lung) was 16 µM, the TGI (SK-MEL-5 melanoma) was 33.4 µM and the TGI (UO-31 renal) was 52.8 µM. The TGI (UACC-62 melanoma) was 27.8 µM, the TGI (SK-MEL-28 melanoma) was 34.7 µM and the TGI (HOP-92 NSCLC) was 58.8 µM. The TGI (M14 melanoma) was 32.5 µM, the TGI (SR leukemia) was 22.6 µM and the TGI (NCI-H23 lung) was 52.5 µM. The TGI (DMS 273 small cell lung) was 40.9 µM, the TGI (IGROV1 ovarian) was 56.9 µM and the TGI (DLD-1 colon) was > 100 µM. The TGI (SK-MEL-2 melanoma) was 34.7 µM, the TGI (HOP-62 NSCLC) was 35.4 µM and the TGI (RXF 393 renal) was 29.2 µM. For the same compound, the TGI (SNB-78 CNS) was 94.3 µM, the TGI (HOP-18 NSCLC) was 46.8 µM and the TGI (SW-620 colon) was 55.1 µM. The TGI (CCRF-CEM leukemia) was 59.6 µM, the TGI (CAKI-1 renal) was 38.2 µM and the TGI (SF-268 CNS) was 43.1 µM. It also gave a TGI (LXFL 529 NSCLC) of 34.4 µM and a TGI (TK-10 renal) of 96.7 µM.

For `CC(=O)Nc1c(Nc2ccccc2)[nH]c(C)nc1=S`, the TGI (OVCAR-3 ovarian) was > 100 µM, the TGI (COLO 205 colon) was > 100 µM and the TGI (ACHN renal) was > 100 µM. For the same compound, the TGI (SK-OV-3 ovarian) was > 100 µM, the TGI (SNB-19 CNS) was > 100 µM and the TGI (A549 NSCLC) was > 100 µM. The TGI (HL-60(TB) leukemia) was > 100 µM, the TGI (MOLT-4 leukemia) was > 100 µM and the TGI (EKVX NSCLC) was > 100 µM. For the same compound, the TGI (HCC-2998 colon) was > 100 µM, the TGI (HCT-15 colon) was > 100 µM and the TGI (786-0 renal) was > 100 µM. For the same compound, the TGI (LOX IMVI melanoma) was > 100 µM, the TGI (KM20L2 colon) was > 100 µM and the TGI (DMS 114 small cell lung) was > 100 µM. The TGI (UACC-257 melanoma) was > 100 µM, the TGI (SN12C renal) was > 100 µM and the TGI (K-562 leukemia) was > 100 µM. For the same compound, the TGI (NCI-H522 lung) was > 100 µM, the TGI (OVCAR-5 ovarian) was > 100 µM and the TGI (RPMI-8226 leukemia) was > 100 µM. The TGI (MALME-3M melanoma) was > 100 µM, the TGI (OVCAR-8 ovarian) was > 100 µM and the TGI (SF-295 CNS) was > 100 µM. For the same compound, the TGI (SNB-75 CNS) was > 100 µM, the TGI (XF 498 CNS) was > 100 µM and the TGI (SK-MEL-5 melanoma) was > 100 µM. For the same compound, the TGI (UO-31 renal) was > 100 µM, the TGI (KM12 colon) was > 100 µM and the TGI (NCI-H460 lung) was > 100 µM. For the same compound, the TGI (UACC-62 melanoma) was > 100 µM, the TGI (SK-MEL-28 melanoma) was > 100 µM and the TGI (HOP-92 NSCLC) was > 100 µM. For the same compound, the TGI (M14 melanoma) was > 100 µM, the TGI (NCI-H23 lung) was > 100 µM and the TGI (DMS 273 small cell lung) was > 100 µM. For the same compound, the TGI (IGROV1 ovarian) was > 100 µM, the TGI (OVCAR-4 ovarian) was > 100 µM and the TGI (DLD-1 colon) was > 100 µM. The TGI (SK-MEL-2 melanoma) was > 100 µM, the TGI (HOP-62 NSCLC) was > 100 µM and the TGI (RXF 393 renal) was > 100 µM. For the same compound, the TGI (SNB-78 CNS) was > 100 µM, the TGI (SW-620 colon) was > 100 µM and the TGI (CCRF-CEM leukemia) was > 100 µM. The TGI (CAKI-1 renal) was > 100 µM, the TGI (SF-268 CNS) was > 100 µM and the TGI (LXFL 529 NSCLC) was > 100 µM. The TGI (TK-10 renal) was > 100 µM.

With `N#C/C(=C/c1ccc2c(c1)OCO2)C(=O)c1ccccc1` the TGI (OVCAR-3 ovarian) was > 100 µM, the TGI (COLO 205 colon) was > 100 µM and the TGI (HT29 colon) was > 100 µM. For the same compound, the TGI (ACHN renal) was > 100 µM, the TGI (SK-OV-3 ovarian) was > 100 µM and the TGI (SNB-19 CNS) was > 100 µM. The TGI (A549 NSCLC) was > 100 µM, the TGI (MOLT-4 leukemia) was > 100 µM and the TGI (EKVX NSCLC) was > 100 µM. The TGI (HCC-2998 colon) was > 100 µM, the TGI (HCT-15 colon) was > 100 µM and the TGI (786-0 renal) was > 100 µM. For the same compound, the TGI (KM20L2 colon) was > 100 µM, the TGI (UACC-257 melanoma) was > 100 µM and the TGI (A498 renal) was > 100 µM. The TGI (SN12C renal) was > 100 µM, the TGI (K-562 leukemia) was > 100 µM and the TGI (HCT-116 colon) was > 100 µM. The TGI (NCI-H522 lung) was > 100 µM, the TGI (OVCAR-5 ovarian) was > 100 µM and the TGI (RPMI-8226 leukemia) was > 100 µM. For the same compound, the TGI (MALME-3M melanoma) was > 100 µM, the TGI (SF-539 CNS) was > 100 µM and the TGI (OVCAR-8 ovarian) was > 100 µM. For the same compound, the TGI (SF-295 CNS) was > 100 µM, the TGI (U251 CNS) was > 100 µM and the TGI (M19-MEL melanoma) was > 100 µM. For the same compound, the TGI (SNB-75 CNS) was > 100 µM, the TGI (XF 498 CNS) was > 100 µM and the TGI (SK-MEL-5 melanoma) was > 100 µM. For the same compound, the TGI (UO-31 renal) was > 100 µM, the TGI (KM12 colon) was > 100 µM and the TGI (NCI-H460 lung) was > 100 µM. The TGI (UACC-62 melanoma) was > 100 µM, the TGI (SK-MEL-28 melanoma) was > 100 µM and the TGI (M14 melanoma) was > 100 µM. The TGI (NCI-H23 lung) was > 100 µM, the TGI (IGROV1 ovarian) was > 100 µM and the TGI (OVCAR-4 ovarian) was > 100 µM. For the same compound, the TGI (DLD-1 colon) was > 100 µM, the TGI (SK-MEL-2 melanoma) was > 100 µM and the TGI (HOP-62 NSCLC) was > 100 µM. For the same compound, the TGI (SNB-78 CNS) was > 100 µM, the TGI (HOP-18 NSCLC) was > 100 µM and the TGI (SW-620 colon) was > 100 µM. The TGI (CCRF-CEM leukemia) was > 100 µM, the TGI (CAKI-1 renal) was > 100 µM and the TGI (SF-268 CNS) was > 100 µM. For the same compound, the TGI (LXFL 529 NSCLC) was > 100 µM and the TGI (TK-10 renal) was > 100 µM.

From PubChem BioAssay (NCI)
